Assay results reported in patent publication US11325905B2, “Imidopiperidine compounds as inhibitors of human polynucleotide kinase phosphatase” (THE GOVERNORS OF THE UNIVERSITY OF ALBERTA, priority 2017, dated 2022).
“And” between values parts separate entries of the source, which are not always exact repeats. Identical values can stand only once. Like-named read-outs stand apart in the source and are kept apart here.

Tests used:
HCT116 cells [1] = test: Clonogenic survival assay, radio/chemosensitization; format: cell-based, human
Protocol: (§1) Cells, seeded in 60-mm dishes 24 hours in advance, were treated with PNKP inhibitors for 9-14 consecutive days at nontoxic concentrations. […] Colonies consisting of 50 cells or more were counted using an automated colony counter (Oxford Optronix, Abingdon, UK).

Solubility = format: physicochemical
HCT116 PTEN+/+ cells = test: Clonogenic survival assay, PTEN wild-type control cells; format: cell-based; conditions: encapsulated, 9-14 days
Protocol: (§2) Cells, seeded in 60-mm dishes 24 hours in advance, were treated with PNKP inhibitors for 9-14 consecutive days at nontoxic concentrations. Colonies were then stained with a crystal violet (Sigma, Oakville, ON, CA) stain containing 25% methanol for 30 min, after which the plates were washed in warm water and left to dry overnight. Colonies consisting of 50 cells or more were counted using an automated colony counter (Oxford Optronix, Abingdon, UK).
(§3) To investigate whether the new encapsulated PNKP 3′-phosphatase inhibitors could induce a synthetic lethal response in PTEN-deficient cells, we performed clonogenic survival assays with both HCT116 PTEN+/+ and HCT116 PTEN−/− cells. […] However, the disruption of PNKP (chemically by inhibitors) or PTEN (genetically) individually was not lethal. These findings confirm our previous observation that a synthetic lethal relationship exists between PTEN and PNKP.

HCT116 cells [2] = test: MTS cell proliferation assay; format: cell-based, human; conditions: for usable concentration in clonogenic survival assays (not affecting cell growth): 72 h MTS
Protocol: Free inhibitor was dissolved in DMSO in a way to keep the final concentration of DMSO<1%. After 72 h, 11 μL of the pre-mixed optimized dye solution (tetrazolium dye) was added to each well and cells were incubated for 4 more hours at 37° C. The absorbance recorded at 490 nm on a FLUOstar Optima® plate reader (BMG Labtech Inc., Durham, N.C.) was used as a representation of the relative number of metabolically active cells in the culture.

HCT116 PTEN−/− cells = test: Clonogenic survival assay, synthetic lethality; format: cell-based, human
Protocol: as §2, §3

EGFR = EGFR (Homo sapiens (Human), UniProt P00533); conditions: read-out: dissociation constant; cited from earlier work
murine PNKP = murine PNKP (Mus musculus (Mouse), UniProt Q9JLV6); conditions: compared with human PNKP; cited from earlier work
[3] = test system: cells in which PNKP expression was down-regulated by shRNA; conditions: cited from earlier work
[4] = test system: MDA-MB-231 breast cancer cells; conditions: non-toxic doses; cited from earlier work
myeloid leukemia cells = conditions: cited from earlier work
PNKP [5] = molecular target: T1, PNKP (Homo sapiens (Human), UniProt Q96T60); test: Binding affinity (Kd) by steady-state fluorescence spectroscopy, protein tryptophan fluorescence quenching
Protocol: (§4) We chose to first rate and compare the analogues using a single-point measurement at 20 μM concentration. […] Only the top-rated analogues were further evaluated with an IC50 and a dissociation constant (Kd) determination.
Freschauf, G. K., Mani, R. S., Mereniuk, T. R., Fanta, M., Virgen, C. A., Dianov, G. L., Grassot, J. M., Hall, D. G., and Weinfeld, M. Mechanism of action of an imido-piperidine inhibitor of human polynucleotide kinase/phosphatase.

PNKP [6] = molecular target: T1, PNKP; test: Universal molecular beacon (U-MB) fluorescence assay of PNKP phosphatase activity, IC50; format: biochemical
Protocol: as §4

[7] = test system: human A549 lung carcinoma cells; conditions: non-toxic doses; cited from earlier work
[8] = test system: radioresistant prostate cancer cells; conditions: cited from earlier work
[9] = test system: limited panel of phosphatase enzymes; conditions: cited from earlier work
PNKP [10] = molecular target: T1, PNKP; conditions: intrinsic (tryptophan) fluorescence quenching titration, earlier publication; read-out: dissociation constant (Kd); cited from earlier work
[11] = concentrations of 5-10 μM; cited from earlier work
[12] = test system: HCT116 PNKP-knock out cells; test: Clonogenic survival assay, radio/chemosensitization in PNKP knock-out cells; format: cell-based, human; conditions: free or encapsulated
Protocol: as §1

[13] = In vitro release of PNKP inhibitors by dialysis method; format: physicochemical
Protocol: The in vitro release of encapsulated PNKP inhibitors was studied using a dialysis method. Each dialysis bag (Spectrapor dialysis tubing, MWCO 3.5 kDa, Spectrum Laboratories, Rancho Dominguez, Calif.), containing 2 mL of the micellar formulation or free drug dissolved in acetone, was placed into 300 mL of distilled water maintained at 37° C. in a shaking water bath (65 rpm, Julabo SW 22 shaking water bath, Seelbach, Germany). At selected time intervals, aliquots of 200 μL from the inside of the dialysis bag were collected. The amount of PNKP inhibitor was analyzed using a Varian Prostar 210 HPLC system. Reversed phase chromatography was carried out with a Microsorb-MV 5 μm C18-100 Å column (4.6 mm×250 mm) with 20 μL of sample injected and eluted under isocratic conditions with a solution of 0.1% trifluroacetic acid/acetonitrile (1:1 v/v) at a flow rate of 1.0 mL/min at room temperature.

[14] = test system: HCT116 wild type (wt) and PTEN knockout colorectal cells xenograft tumours; test: Subcutaneous xenograft tumour response; format: in vivo; conditions: NIHIII mice, intravenous, three times 2 days apart, free or encapsulated
Protocol: In FIG. 32, we have injected 500,000 HCT116 colorectal cancer cells subcutaneously in the right flank of NIHIII mice. […] Tumour volume was then calculated from the measurement of tumour dimensions and used to plot change in tumour volume over time.

Sequence of murine PNKP (Q9JLV6 whole entry): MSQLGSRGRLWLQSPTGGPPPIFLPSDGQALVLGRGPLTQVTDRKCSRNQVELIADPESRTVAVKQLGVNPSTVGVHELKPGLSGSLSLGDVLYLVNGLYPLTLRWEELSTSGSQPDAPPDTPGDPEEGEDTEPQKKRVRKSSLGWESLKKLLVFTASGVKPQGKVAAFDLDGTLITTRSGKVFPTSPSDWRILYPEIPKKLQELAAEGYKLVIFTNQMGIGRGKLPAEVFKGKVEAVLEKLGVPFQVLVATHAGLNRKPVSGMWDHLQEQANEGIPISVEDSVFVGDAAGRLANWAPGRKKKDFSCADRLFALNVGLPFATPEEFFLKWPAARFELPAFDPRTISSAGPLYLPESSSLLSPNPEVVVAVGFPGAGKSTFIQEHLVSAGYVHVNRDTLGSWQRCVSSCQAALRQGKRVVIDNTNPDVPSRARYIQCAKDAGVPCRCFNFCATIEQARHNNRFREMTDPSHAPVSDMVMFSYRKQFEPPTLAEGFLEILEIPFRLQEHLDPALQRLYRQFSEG

Q: For `CCCCCCCCCC[C@@H](O)[C@@H]1C=CC2C(=O)N(c3ccc(N4CCNCC4)cc3)C(=O)[C@H]2N1Nc1ccc([N+](=O)[O-])cc1` (some centres unmarked) [Compound A12B4C50], which “level at which encapsulated inhibitor sensitized HCT116 cells to radiation and irinotecan” value (HCT116 cells [1]) is on record?
A: 4 µM

Q: What about the water solubility (Solubility) of the same compound?
A: low water solubility

Q: What about the “toxicity to HCT116 PTEN+/+ cells” value (HCT116 PTEN+/+ cells) of the same compound?
A: showed toxicity

Q: What about the “usable concentration in clonogenic survival assays (not affecting cell growth)” value (HCT116 cells [2]) of the same compound?
A: ≤ 5 µM

Q: And the “concentrations at which cell growth was affected” value (HCT116 cells [2]; free and encapsulated, 72 h)?
A: > 5 µM

Q: And the “level at which encapsulated inhibitor induced synthetic lethality” value (HCT116 PTEN−/− cells)?
A: 4 µM

Q: With YHWYGYTPQNVI [GE11] as the compound, how does the Kd (EGFR) read?
A: ~0.022 µM

Q: Which “solubility compared with A12B4C3” value (Solubility) does the source give for `COc1ccccc1[C@@H](O)[C@H]1C=CC2C(=O)N(c3ccccc3)C(=O)[C@H]2N1Nc1ccc([N+](=O)[O-])cc1` (some centres unmarked) [Compound A83B4C3] here?
A: more soluble

Q: Which “inhibition of murine PNKP” value (murine PNKP) does the source give for `CCCCCCCCCC[C@@H](O)[C@H]1C=CC2C(=O)N(c3ccccc3)C(=O)[C@H]2N1Nc1ccc([N+](=O)[O-])cc1` (stereo in doubt) [Compound A12B4C3, 2-(1-hydroxyundecyl)-1-(4-nitrophenylamino)-6-phenyl-6,7a-dihydro-1H-pyrrolo[3,4-b]pyridine-5,7(2H, 4aH)-dione] here?
A: only slightly reduced efficacy

Q: What about the “sensitization of PNKP-down-regulated cells” value [3] of the same compound?
A: failed to sensitize

Q: What about the “sensitization to γ-radiation and camptothecin” value [4] of the same compound?
A: able to sensitize

Q: What about the “sensitization to Auger electron-emitting radioimmunoconjugate” value (myeloid leukemia cells) of the same compound?
A: sensitizes

Q: What about the Kd (PNKP [5]) of the same compound?
A: 0.37 µM

Q: And the IC50 (PNKP [6])?
A: 14 µM

Q: What about the “sensitization to γ-radiation and camptothecin” value [7] of the same compound?
A: able to sensitize

Q: What about the “sensitization to irradiation by carbon ions” value [8] of the same compound?
A: sensitizes

Q: What about the specificity [9] of the same compound?
A: specificity for PNKP

Q: What about the Kd (PNKP [10]) of the same compound?
A: 0.34 µM

Q: And the cytotoxicity [11]?
A: low cytotoxicity

Q: With `O=C1C2C=C[C@H]([C@H](O)c3ccc(Br)cc3)N(Nc3ccc([N+](=O)[O-])cc3)[C@@H]2C(=O)N1c1ccccc1` (some centres unmarked) [Compound A44B4C3] as the compound, how does the “solubility compared with A12B4C3” value (Solubility) read?
A: more soluble

Q: Which “level at which encapsulated inhibitor sensitized HCT116 cells to radiation and irinotecan” value (HCT116 cells [1]) does the source give for `COc1ccccc1C(O)C1C=CC2C(=O)N(Cc3cccc4ccccc34)C(=O)C2N1Nc1ccc([N+](=O)[O-])cc1` (centres unmarked) [Compound A83B4C63, 2-[hydroxy(2-methoxyphenyl)methyl]-6-(naphthalen-1-ylmethyl)-1-[(4-nitrophenyl)amino]2H,4aH,7aH-pyrrolo[3,4-b]pyridine-5,7-dione] here?
A: 6 µM

Q: And the “sensitization of HCT116 PNKP-knock out cells to radiation or irinotecan” value [12]?
A: failed to further sensitize

Q: What about the “drug released from the dialysis bag” value ([13]; free drug, within 6 h, 37° C.) of the same compound?
A: 59.4%

Q: And the drug released ([13]; from PEO-b-PBCL micelles, within 6 h, 37° C.)?
A: 30.6%

Q: What about the drug release ([13]; from PEO-b-PCL formulations, within 24 h) of the same compound?
A: 84.2%

Q: What about the drug released ([13]; from PEO-b-PCL micelles, within 6 h, 37° C.) of the same compound?
A: 66.5%

Q: And the cumulative release ([13]; from respective optimum micelles (PEO-b-PCCL for A12B4C50, PEO-b-PBCL for A83B4C63), within 24 h)?
A: 48% and 48.2%

Q: And the water solubility (Solubility)?
A: low water solubility

Q: What about the “tumour volume response, PTEN positive versus PTEN negative tumour model” value [14] of the same compound?
A: not as effective in the PTEN positive tumour model as it is in the PTEN negative tumour model

Q: What about the “usable concentration in clonogenic survival assays (not affecting cell growth)” value (HCT116 cells [2]) of the same compound?
A: < 20 µM

Q: And the “synthetic lethality in HCT116 PTEN−/− cells” value (HCT116 PTEN−/− cells; 9-14 days treatment)?
A: more specifically toxic to PTEN-deficient cells than A12B4C50

Q: What about the “level at which encapsulated inhibitor induced synthetic lethality” value (HCT116 PTEN−/− cells) of the same compound?
A: 4 µM
